Here are results for one molecule from paper PMC12268802, “The herbicidal natural product phosphonothrixin is an inhibitor of the riboflavin biosynthetic enzyme L‐3,4‐dihydroxy‐2‐butanone‐4‐phosphate synthase” (Pest Management Science, 2025).

The test system of assay [1] is Lemna gibba. The assay can be described thus: Lemna gibba growth assay. Format: in vivo. The conditions noted are these: 100 μM phosphonothrixin; 7 days. The method, then: Growth experiments were performed in sterile 6‐well cell culture plates and were initiated by transferring four Lemna gibba fronds per well to 5 mL of K‐medium[22] pH 4.8 containing 1% (w/v) sucrose and a selected concentration of phosphonothrixin (1) and riboflavin determined from previous experiments. The cell culture plates were incubated for 7 days in a growth cabinet at 22 °C and a continuous photon flux density of 75 μE/m^2s.

Assay [2] addresses T1, AtDHBPS (Arabidopsis thaliana, UniProt P47924).
T1 construct: made in house; host or cells: Escherichia coli BL21(DE3)
T1 sequence (P47924 with tags, fused parts or gaps): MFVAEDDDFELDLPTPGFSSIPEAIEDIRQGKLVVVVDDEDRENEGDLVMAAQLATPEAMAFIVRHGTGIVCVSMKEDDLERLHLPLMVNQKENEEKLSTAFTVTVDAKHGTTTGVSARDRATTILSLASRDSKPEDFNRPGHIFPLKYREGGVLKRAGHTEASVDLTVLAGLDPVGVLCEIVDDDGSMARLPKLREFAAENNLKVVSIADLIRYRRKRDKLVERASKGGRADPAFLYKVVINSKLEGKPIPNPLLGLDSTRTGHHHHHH
The assay can be described thus: DHBPS activity assay. Format: biochemical. The method, then: (§1) DHBPS activity assays were out carried in 96‐well microtiter plates using a modification of the procedure previously described.[18] The reaction mixture contained 100 mM MES (2‐morpholinoethanesulfonic acid) buffer pH 6.5, 20 mM MgCl2, 20 mM D‐ribose‐5‐phosphate (Sigma‐Aldrich R7750), 0.02% Tween‐20, 0.2 mg BSA, 0.5 μg of spinach phosphoriboisomerase (Sigma‐Aldrich P9752) and DHBPS enzyme in a final volume of 110 μL. Assays were initiated by adding enzyme and terminated after 120 min incubation at rt by the addition of 90 μL of a solution of 3.5% α‐naphthol and 0.2% creatine in 2 N NaOH. After an additional 45 min incubation at rt the absorbance was determined at 540 nm. The pI50‐value for inhibition by phosphonothrixin (1) was determined with the XLFit Excel add‐in version 4.3.1 curve fitting program of ID Business Solutions Limited. […] Reaction velocities were fitted to the Michaelis–Menten equation with the XLFit curve fitting program.

Assay [3] deals with ZtDHBPS (Zymoseptoria tritici, UniProt F9X7Z9). Nature of the assay: DHBPS activity assay. Format: biochemical. The method, then: as §1
ZtDHBPS, sequence (F9X7Z9 1-226): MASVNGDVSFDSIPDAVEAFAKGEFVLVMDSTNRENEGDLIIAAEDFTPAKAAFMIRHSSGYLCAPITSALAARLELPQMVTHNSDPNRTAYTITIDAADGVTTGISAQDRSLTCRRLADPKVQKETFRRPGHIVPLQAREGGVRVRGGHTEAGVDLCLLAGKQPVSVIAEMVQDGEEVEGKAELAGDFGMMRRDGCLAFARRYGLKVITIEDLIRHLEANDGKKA

One may read the IC50 as the concentration that inhibits the measured activity by half. A high value points to a need for much substance. In general, Ki refers to a dissociation constant, usually derived from enzyme kinetics or from competition with a known ligand. In the case of `CC(=O)C(O)(CO)CP(=O)(O)O` (stereo not drawn) [phosphonothrixin], in assay [1], the “bleaching of Lemna gibba fronds” value is on record as “strong bleaching of the fronds” and the “growth of Lemna gibba” value was “significant growth inhibition”. In assay [2], this molecule displayed an IC50 of 58 ± 11 µM and a Ki of 16.6 ± 5 µM. Besides, the “type of inhibition of AtDHBPS” value in assay [2] (with respect to the substrate) is reported as “competitive inhibitor”. This molecule also displayed an IC50 in assay [3] of 19 µM.
